Results taken from patent publication US20080287493A1, “ARYLMETHYLEN SUBSTITUTED N-ACYL-Y-AMINOALCOHOLS” (priority 2007, published 2008).

Legend:
[1] = molecular target: T1, human FSH receptor (Homo sapiens, UniProt P23945); test: HTRF assay for measuring cAMP in cells, test for agonism (in the absence of hFSH); assay type: cell-based; details: hFSHR clone 16 cells (CHO cells stably transfected with the human FSH receptor), 37° C. for 2 h, read-out: EC50 (FSH agonistic effect in the HTRF assay)
T1 construct: expressed in transfected cells; host or cells: CHO cells (hFSHR clone 16)
T1 sequence (P23945 18-695): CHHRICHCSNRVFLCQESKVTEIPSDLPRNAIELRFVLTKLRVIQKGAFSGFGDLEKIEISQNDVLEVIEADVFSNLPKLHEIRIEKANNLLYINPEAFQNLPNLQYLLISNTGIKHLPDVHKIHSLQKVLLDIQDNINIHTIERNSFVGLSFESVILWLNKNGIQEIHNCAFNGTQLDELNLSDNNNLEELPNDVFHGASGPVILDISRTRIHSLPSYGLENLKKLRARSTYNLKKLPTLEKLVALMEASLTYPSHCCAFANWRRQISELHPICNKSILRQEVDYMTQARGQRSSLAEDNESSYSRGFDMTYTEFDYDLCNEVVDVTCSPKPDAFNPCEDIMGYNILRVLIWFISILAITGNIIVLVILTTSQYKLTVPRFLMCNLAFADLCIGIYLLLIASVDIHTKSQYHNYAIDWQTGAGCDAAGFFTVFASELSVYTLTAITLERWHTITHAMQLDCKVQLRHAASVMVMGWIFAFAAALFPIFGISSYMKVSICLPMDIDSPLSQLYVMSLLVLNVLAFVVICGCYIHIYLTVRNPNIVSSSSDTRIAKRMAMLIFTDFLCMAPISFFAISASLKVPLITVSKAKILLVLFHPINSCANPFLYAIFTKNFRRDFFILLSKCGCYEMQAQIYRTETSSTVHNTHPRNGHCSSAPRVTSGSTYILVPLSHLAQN
Procedure: (§1) HTRF Assay for Measuring cAMP in Cells
(§2) The method is based on a competitive immunoassay between native cAMP, which has been produced by the cells, and cAMP which is labelled with XL665. The tracer binding was visualized by a monoclonal antibody, anti-cAMP labelled with cryptate [HTRF=homogeneous time-resolved fluorescence].
(§3) The specific signal is inversely proportional to the cAMP concentration of the samples employed.
(§4) The 665 nm/620 nm fluorescence ratio was evaluated.
(§5) The following material was used: 96-well plates for the tissue culture, 96-well plates with black edge and black base (e.g. Fluotrac 600 from Greiner), 96-well plates for the substance dilutions of polypropylene and cAMP Femtomolar (4000 wells Kit, CIS Bio International # 62AM1PEC).
(§6) The following reagents were used: BSA (bovine serum albumin) Fraction V protease-free, IBMX (3-isobutyl-1-methylxanthine), hFSH (human follicle stimulating hormone), Triton X-100 analytical grade, potassium fluoride analytical grade, G 418 (Geneticin) and Accutase.
(§7) Buffer 1 (washing and testing buffer) contained PBS, 1 mM CaCl2, 1 mM MgCl2, 0.2% glucose; 0.1% BSA, 1 mM IBMX. Buffer 2 (2× lysis buffer) contained 1% Triton X-100 in PBS (without CaCl2 and MgCl2). Buffer 3 (assay buffer) contained 50 mM potassium phosphate buffer (pH 7.0); 800 mM potassium fluoride; 0.2% BSA (always added fresh).
(§8) On day 1, the cells were seeded in 96-well plates (3×10^4 cells per well hFSHR clone 16 cells (CHO cells stably transfected with the human FSH receptor in 150 μl of medium). The next day, test substance dilutions were made up. For this purpose, all the substances were diluted in ice-cold buffer 1 (with or without hFSH), and the substance dilutions were placed on ice until applied to the cells.
(§9) The cell supernatant was then aspirated off, and the cells were washed 2× with 200 μl of buffer 1. The cells were treated with 60 μl of the appropriate substance concentrations at 37° C. for 2 h. The cells were then lysed with 60 μl of buffer 2 (put onto the supernatant) (on a plate shaker at RT for 30 min).
(§10) The test conjugates (XL-665 and anti-cAMP cryptate) were diluted in buffer 3 in accordance with the manufacturers' information. The actual mixture for measurement was pipetted into a black 96-well plate (in each case 15 μl of the cell lysate diluted with 35 μl of buffer 1; firstly 25 μl of XL-665 conjugate were pipetted and, after 10 min, 25 μl of the anti-cAMP cryptate were added). This is followed by incubation at RT for 90 minutes. The measurement was carried out in a PheraStar (BMG).
(§11) Dose-effect curve (hFSH) for the human receptor: 1e-8, 3e-9, 1 e-9, 3e-10, 1e-10, 3e-11, 1e-11, 3e-12 mol/l.
(§12) The test substances were employed in suitable dilutions in the absence (test for agonism) and in the presence of 1e-9 mol/l hFSH.
(§13) The values of the well ratio were averaged and then entered directly in SigmaPlot versus the concentrations. The maximum and minimum values were determined for each plate, and half the difference is to be regarded as IC50.

[2] = molecular target: T1, human FSH receptor; test: HTRF assay for measuring cAMP in cells, test for antagonism (in the presence of hFSH); assay type: cell-based; details: hFSHR clone 16 cells (CHO cells stably transfected with the human FSH receptor); in the presence of 1e-9 mol/l hFSH; 37° C. for 2 h; read-out: IC50 (FSH antagonistic effect in the HTRF assay)
Procedure: as §1, §2, §3, §4, §5, §6, §7, §8, §9, §10, §11, §12, §13

Row | SMILES | EC50 [1] | IC50 [2]
1 | COc1ccc2nc(-c3cc(OC)c(OC)c(OC)c3)cc(C(=O)N[C@H](CCO)Cc3c[nH]c4ccccc34)c2c1 [Example 14, 6-Methoxy-2-(3,4,5-trimethoxy-phenyl)-quinoline-4-carboxylic acid [(S)-3-hydroxy-1-(1H-indol-3-yl-methyl)-propyl]-amide] | 6 µM | > 10 µM
2 | CNC(=O)c1ccc(-c2ccc(OC(C)C)c(C(=O)N[C@@H](CCO)Cc3c[nH]c4ccccc34)c2)cc1Cl [Example 3, 3′-Chloro-4-isopropoxy-biphenyl-3,4′-dicarboxylicacid 3-{[(R)-3-hydroxy-1-(1H-indol-3-ylmethyl)-propyl]-amide} 4′-methylamide] | > 10 µM | 0.025 µM
3 | CCOc1ccc(-c2cccc(OC)c2)cc1C(=O)N[C@@H](CCO)Cc1c[nH]c2ccccc12 [Example 2, 4-Ethoxy-3′-methoxy-biphenyl-3-carboxylic acid [(R)-3-hydroxy-1-(1H-indol-3-ylmethyl)-propyl]-amide] | > 10 µM | 0.3 µM
4 | COc1ccc2nc(-c3cc(OC)c(OC)c(OC)c3)cc(C(=O)N[C@@H](CCO)Cc3ccsc3)c2c1 [Example 12, 6-Methoxy-2-(3,4,5-trime-thoxy-phenyl)-quinoline-4-carboxylic acid ((R)-3-hydroxy-1-thiophen-3-yl-methyl-propyl)-amide] | 5 µM | > 10 µM
5 | COc1ccc2nc(-c3cc(OC)c(OC)c(OC)c3)cc(C(=O)N[C@@H](CCO)Cc3csc4ccccc34)c2c1 [Example 9, 6-Methoxy-2-(3,4,5-trime-thoxy-phenyl)-quinoline-4-carboxylic acid ((R)-1-benzo-[b]thiophen-3-ylmethyl-3-hydroxy-propyl)-amide] | – | > 10 µM
6 | COc1ccccc1C#Cc1ccc(OC(C)C)c(C(=O)N[C@@H](CCO)Cc2c[nH]c3ccccc23)c1 [Example 5, N-[(R)-3-Hydroxy-1-(1H-indol-3-ylmethyl)-propyl]-2-isopropoxy-5-(2-methoxy-phenylethynyl)-benzamide] | > 10 µM | 0.15 µM
7 | COc1ccc2nc(-c3cc(OC)c(OC)c(OC)c3)cc(C(=O)N[C@H](CCO)Cc3ccccc3)c2c1 [Example 17, 6-Methoxy-2-(3,4,5-trime-thoxy-phenyl)-quinoline-4-carboxylic acid ((S)-1-benzyl-3-hydroxy-propyl)-amide] | 8 µM | > 10 µM
8 | COc1ccc2nc(-c3cc(OC)c(OC)c(OC)c3)cc(C(=O)N[C@@H](CCO)Cc3ccc4ccccc4c3)c2c1 [Example 8, 6-Methoxy-2-(3,4,5-trimethoxy-phenyl)-quinoline-4-carboxylic acid ((R)-3-hydroxy-1-naphthalen-2-ylmethyl-propyl)-amide] | 7 µM | > 10 µM
